Measured values: US7604806B2, “Use of a lyophilisate of dedifferentiated plant cells for skin depigmentation and/or lightening” (Biotechmarine, priority 2003, dated 2009)

System: reconstructed epidermes SKINETHIC® integrating melanocytes (type IV)
Assay: Assay of the melanin on reconstructed epidermes integrating melanocytes
Format: cell-based, human
Experimental: The cells are grown for 10 days at the air/liquid interface, the growth medium is being changed daily. The thus formed type IV epidermis (=negroid) were used from the 10th day of culture. […] Marine cells obtained in Examples 1 and 2. The assessment of the synthesis of intracellular melanin (qualitative study) was carried out by spectrometry at 475 nm after that the cells were suspended, then dissolved in NaOH (1N) and dimethyl sulfoxide for 30 minutes.

SMILES: O=c1cc(CO)occ1O [Positive control, kojic acid]
- Melanin, % vs negative control (change of the rate of melanin compared to negative control): −44%
- Melanin, Absorbance (475 nm) (intracellular melanin, type IV epidermes, duplicate): 0.09 ± 0.01
